The subject of data set [1] is IL-1Ra release from human primary monocytes. Briefly: IL-1Ra release from human primary monocytes, immunoassay (ELISA) of supernatants. The data set is classed as cell-based. Particulars: primary human monocytes of healthy donors, 25 and 50 μg mL^−1, 48 h. The protocol:
As an activity screen we focused on interleukin‐1 receptor antagonist (IL‐1Ra), a cytokine released by circulating antigen presenting cells (APC) in response to GA.[15, 35] […] To test our dendrimers, we quantified by immunoassay the release of IL‐1Ra from human primary monocytes of healthy donors, an easily accessible type of APC, stimulated or not by addition of lipopolysaccharide (LPS), which in our hands provided a reliable read‐out.[15] We tested at defined weight/volume (25 and 50 μg mL^−1 compound as typically reported for GA)[15, 35] to account for a possible activity increase with MW as often observed with dendrimers when using molarity. In the initial screen the levels of secreted IL‐1Ra remained below 1 ng mL^−1 for all the smaller test compounds as well as with the linear peptide analogs of GA.
Figure 2 Cytokine level of IL‐1Ra in supernatants of primary human monocytes of healthy donors treated with peptide dendrimers, evaluated by ELISA (bars, left vertical axis) and mRNA levels (▴, right vertical axis). […] For mRNA levels evaluation, 2×10^6 cells 3 mL^−1 in 6 well plates were incubated with 50 μg mL^−1 dendrimer or GA for 18 h. […]
Enzyme-linked immunosorbent assay (ELISA)
Monocytes (5×10^4 cells/200 μL well; 96-well plates) were preincubated for 1 h with or without compounds in RPMI-1640 medium supplemented with 10% heat-inactivated FBS, 50 μg/mL streptomycin, 50 U/mL penicillin, 2 mM L-glutamine, and 5 μg/mL polymyxin B sulfate and then cultured for 48 h in the presence or absence of LPS (100 ng/mL) (2). The production of IL-1Ra was measured in culture supernatants by commercially available enzyme immunoassay according to manufacture protocol.
Figure S2. Cytokine level of IL-1Ra in supernatants of monocytes for active dendrimers and analogues evaluated by ELISA assay on primary human monocytes of healthy donors. 5×10^4 cells/200 µL in 96 well plates, were incubated with dendrimers or GA as a control for 48 h in presence or absence of LPS (100 ng/mL), in a range of concentrations (50-25 µg/mL) (mean ± SD, n = 2 different experiments). The results are present as the difference between each sample and the non-treated sample to take into account the difference between base line for each donor.
Figure S3. Cytokine level of IL-1Ra in supernatants of monocytes for active dendrimers and […]
presence or absence of LPS (100 ng/mL), in a range of concentrations (100-12.5 µg/mL) (mean ± SD, n = 3 different experiments). […]

Another data set relates to lymphocytes. As to the kind of experiment: IL-1Ra in supernatants of lymphocytes (rest of leukocytes after Percoll), ELISA. The data set is classed as cell-based, human. Particulars: rest of leukocytes after Percoll gradient, 50-25 µg/mL, 48 h, n = 2. The protocol:
Similar donor dependent responses of cytokine release to GA have been reported for IL‐27.[38]
Figure S3. Cytokine level of IL-1Ra in supernatants of monocytes for active dendrimers and analogues evaluated by ELISA assay on primary human monocytes of healthy donors. 5×10^4 cells/200 µL in 96 well plates, were incubated with dendrimers or GA as a control for 48 h in presence or absence of LPS (100 ng/mL), in a range of concentrations (100-12.5 µg/mL) (mean ± SD, n = 3 different experiments).
Figure S4. Cytokine level of IL-1Ra in supernatants of monocytes enriched fraction (a) and the rest of leukocytes (b) for active dendrimers and analogues evaluated by ELISA assay.
Monocytes fraction was separated from whole PBMC by Percoll density gradient centrifugation. 5×10^4 cells/200 µL in 96 well plates were incubated with dendrimers or GA (50-25 µg/mL) as a control for 48 h (mean ± SD, n = 2 different experiments). […]

Data set [2] in a line: Circular dichroism spectroscopy. Particulars: 100 μg/mL, 8 mM phosphate buffer pH 7.2/7.4. Type of data set: physicochemical. The protocol:
In terms of stereochemistry, activity was lost with D‐enantiomers D‐1 and D‐4, similar to the inactivity reported for D‐enantiomeric GA.[2]
Circular dichroism (CD) experiments were measured on a Jasco J-715 Spectropolarimeter. All the experiments were performed using Hellma Suprasil 110-QS 0.1 cm cuvettes. For each peptide, the measurements were performed in phosphate buffer (PB, pH=7.2, 8 mM) and in the presence of 5 mM dodecylphosphocholine. The concentration of the peptides was 100.0 μg/mL and each sample was measured using one accumulation. The scan rate was 10 nm/min, pitch 0.5 nm, response 16 sec and bandwidth 1.0 nm. The nitrogen flow was kept >8.5 L/min. After each measurement, the cuvettes were washed successively with 1 M HCl, milli-Q H2O and PB buffer. The baseline was recorded under the same conditions and subtracted manually.
Figure S12. Circular dichroism spectra of GA, 1 and 4 (100 μg/mL) in 8 mM phosphate buffer at pH 7.4 (a) or in presence of 5 mM dodecylphosphocholine. Percentage of α-helix and β- sheet was processed by Dichroweb using the CONTIN analysis program and reference set 3.
(1 picture or pasted object on this page, not shown here)

A further data set has as its system TNF-α. Briefly: TNF-α time profile in monocytes, RT-qPCR. Type of data set: cell-based, human. Particulars: 50 µg/mL, LPS (100 ng/mL) activated. The protocol: For closer characterization, we selected dendrimer 1 due to its smaller size and the presence of a cysteine residue that could be used for labelling. […] Furthermore, dendrimer 1 induced the release of IL‐1Ra both with and without LPS activation, but in the latter case the effect was detected only after 18 h incubation (Figure S5e/f).
Enriched monocytes after Percoll centrifugation (4×10^6 cells/3 mL well; 6-well plates) were preincubated for 1 h with or without compounds in RPMI-1640 medium supplemented with 10% heat-inactivated FBS, 50 μg/mL streptomycin, 50 U/mL penicillin, 2 mM L-glutamine, and then incubated for the indicated duration. After the incubation cells were collected, total RNA was extracted, reverse transcribed and analyzed by SYBR Green Master Mix. As a housekeeping gene was used Actin 5'-CAC TGG GGG CTA CTG GAC-3', 3'-AACATGGTGTTGGCAGAAACT-5', IL-1Ra 5'-TTCCTGTTCCATTCAGAGACG -3', 3'-CTTCTGGTTAACATCCCAGATTC -5'.
Figure S5. Dendrimer 1 affected mRNA levels in both LPS -activated and resting monocytes.
Monocytes 4 ×10^6 cells/3 mL in 6 well plates were incubated for indicated time with 50 µg/mL of 1 or without any treatment (NT) (a, c, e); or preincubated for 1 h with 100 ng/mL of LPS, and then with 50 µg/mL of 1 (b, d, f) or without any treatment (NT). […]

Regarding “(KA)8(KAK)4(KEKA)2KAKEAYCA-NH2 [compound 1, G3 peptide dendrimer]”, in data set [1], the “IL-1Ra release activity (in words)” value is “comparable or higher than GA”. The “induction of IL-1Ra in lymphocytes” value in the data set on lymphocytes is “did not occur”. In addition, the “conformation by CD spectra” value in data set [2] is listed as “unordered conformation”. In addition, in the data set on TNF-α, the “release of TNF-α” value is listed as “inhibited”.

(Values after article PMC9298260, “An Immunomodulatory Peptide Dendrimer Inspired from Glatiramer Acetate” (Angewandte Chemie (International Ed. in English), 2021).)
